By inhibition is commonly meant the change of the read-out against control, counted positive when it falls.

This note sets out measurements from ChEMBL document CHEMBL4118098, “Discovery of DS28120313 as a potent orally active hepcidin production inhibitor: Design and optimization of novel 4,6-disubstituted indazole derivatives” (Bioorg Med Chem Lett, 2017).

Experiment [1] has as its target Proto-oncogene tyrosine-protein kinase ROS (Homo sapiens) (UniProt P08922). In words: Inhibition of ROS (unknown origin) at 0.19 uM relative to control.
Experiment [2] deals with Ephrin type-B receptor 1 (Homo sapiens) (UniProt P54762). In words: Inhibition of EPHB1 (unknown origin) at 0.19 uM relative to control.
The target of experiment [3] is Serine/threonine-protein kinase PAK 2 (Homo sapiens) (UniProt Q13177). The experiment in a line: Inhibition of PAK2 (unknown origin) at 0.19 uM relative to control.
Experiment [4] has as its target Aurora kinase B (Homo sapiens) (UniProt Q96GD4). The experiment in a line: Inhibition of AurB (unknown origin) at 0.19 uM relative to control.
The target of experiment [5] is Dual specificity tyrosine-phosphorylation-regulated kinase 1B (Homo sapiens) (UniProt Q9Y463). The experiment in a line: Inhibition of DYRK1B (unknown origin) at 0.19 uM relative to control.
Experiment [6] relates to Tyrosine-protein kinase ABL1 (Homo sapiens), P00519 [G250E]. The experiment in a line: Inhibition of ABL1 G250E mutant (unknown origin) at 0.19 uM relative to control.
Experiment [7] has as its target Leukocyte tyrosine kinase receptor (Homo sapiens) (UniProt P29376). In words: Inhibition of LTK (unknown origin) at 0.19 uM relative to control.
Experiment [8] addresses PAS domain-containing serine/threonine-protein kinase (Homo sapiens) (UniProt Q96RG2). In words: Inhibition of PASK (unknown origin) at 0.19 uM relative to control.
Experiment [9] deals with Inhibitor of nuclear factor kappa-B kinase subunit epsilon (Homo sapiens) (UniProt Q14164). In words: Inhibition of IKBKE (unknown origin) at 0.19 uM relative to control.
Experiment [10] addresses Activated CDC42 kinase 1 (Homo sapiens) (UniProt Q07912). In words: Inhibition of ACK (unknown origin) at 0.19 uM relative to control.
For experiment [11], the target named is Tyrosine-protein kinase Yes (Homo sapiens) (UniProt P07947). The experiment in a line: Inhibition of Yes (unknown origin) at 0.19 uM relative to control.
In experiment [12] the target is Cyclin-dependent kinase 1/cyclin B1 (Homo sapiens) (UniProt P06493+P14635). The experiment in a line: Inhibition of CDK1/CyclinB (unknown origin) at 0.19 uM relative to control. Type of experiment: protein-complex assay.
The target of experiment [13] is Mitogen-activated protein kinase kinase kinase kinase 2 (Homo sapiens) (UniProt Q12851). The experiment in a line: Inhibition of GCK (unknown origin) at 0.19 uM relative to control.
For experiment [14], the target named is Protein kinase C alpha type (Homo sapiens) (UniProt P17252). The experiment in a line: Inhibition of PKC-alpha (unknown origin) at 0.19 uM relative to control.
Experiment [15] concerns the target Serine/threonine-protein kinase Chk1 (Homo sapiens) (UniProt O14757). In words: Inhibition of CHK1 (unknown origin) at 0.164 uM relative to control.
The target of experiment [16] is Tyrosine-protein kinase JAK2 (Homo sapiens) (UniProt O60674). In words: Inhibition of JAK2 (unknown origin) at 0.164 uM relative to control.
Experiment [17] deals with T1, Tyrosine-protein kinase TXK (Homo sapiens) (UniProt P42681).
T1 sequence (whole entry): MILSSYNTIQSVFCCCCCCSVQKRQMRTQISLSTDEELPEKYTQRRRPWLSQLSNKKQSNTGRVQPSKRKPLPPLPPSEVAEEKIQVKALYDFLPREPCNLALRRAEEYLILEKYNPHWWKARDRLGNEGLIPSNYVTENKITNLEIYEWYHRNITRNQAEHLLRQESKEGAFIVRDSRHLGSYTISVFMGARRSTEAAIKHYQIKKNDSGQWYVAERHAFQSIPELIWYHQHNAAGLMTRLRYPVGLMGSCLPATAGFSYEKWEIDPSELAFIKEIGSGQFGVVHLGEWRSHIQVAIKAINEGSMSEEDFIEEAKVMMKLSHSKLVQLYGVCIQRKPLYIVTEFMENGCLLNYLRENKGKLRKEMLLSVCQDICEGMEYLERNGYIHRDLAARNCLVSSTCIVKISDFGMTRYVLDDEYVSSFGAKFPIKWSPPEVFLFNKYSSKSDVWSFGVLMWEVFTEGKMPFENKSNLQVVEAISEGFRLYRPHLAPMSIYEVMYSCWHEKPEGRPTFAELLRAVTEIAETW
The experiment in a line: Inhibition of TXK (unknown origin) at 0.164 uM relative to control.

Experiment [18] deals with Calcium/calmodulin-dependent protein kinase type II subunit alpha (Homo sapiens) (UniProt Q9UQM7). In words: Inhibition of CaMK2a (unknown origin) at 0.164 uM relative to control.
The target in experiment [19] is T2, cGMP-dependent protein kinase 1 (Homo sapiens) (UniProt Q13976).
T2 sequence (whole entry): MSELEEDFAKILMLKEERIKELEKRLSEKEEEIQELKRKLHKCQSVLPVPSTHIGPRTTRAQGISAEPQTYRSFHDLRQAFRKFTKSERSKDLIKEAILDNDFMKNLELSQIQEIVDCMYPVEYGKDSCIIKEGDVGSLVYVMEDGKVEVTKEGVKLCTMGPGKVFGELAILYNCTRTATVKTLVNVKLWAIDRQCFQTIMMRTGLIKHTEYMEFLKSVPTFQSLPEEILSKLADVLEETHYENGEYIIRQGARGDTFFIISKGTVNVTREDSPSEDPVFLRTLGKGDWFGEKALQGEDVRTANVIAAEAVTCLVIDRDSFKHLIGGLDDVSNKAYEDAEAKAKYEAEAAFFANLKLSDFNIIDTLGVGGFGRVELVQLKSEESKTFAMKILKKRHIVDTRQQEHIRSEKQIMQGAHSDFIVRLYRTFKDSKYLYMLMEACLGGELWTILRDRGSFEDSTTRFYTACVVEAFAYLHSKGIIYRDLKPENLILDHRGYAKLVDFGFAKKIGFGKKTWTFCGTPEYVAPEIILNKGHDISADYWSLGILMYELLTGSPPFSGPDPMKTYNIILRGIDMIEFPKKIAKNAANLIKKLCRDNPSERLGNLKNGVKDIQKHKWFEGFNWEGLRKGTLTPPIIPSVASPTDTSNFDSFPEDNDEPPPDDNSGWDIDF
The experiment in a line: Inhibition of PKG-alpha (unknown origin) at 0.164 uM relative to control.

Experiment [20] deals with Ephrin type-B receptor 3 (Homo sapiens) (UniProt P54753). The experiment in a line: Inhibition of EPHB3 (unknown origin) at 0.164 uM relative to control.
Experiment [21] concerns the target Dual specificity protein kinase CLK2 (Homo sapiens) (UniProt P49760). In words: Inhibition of CLK2 (unknown origin) at 0.164 uM relative to control.
In experiment [22] the target is Tyrosine-protein kinase JAK3 (Homo sapiens) (UniProt P52333). In words: Inhibition of JAK3 (unknown origin) at 0.164 uM relative to control.
In experiment [23] the target is Mitogen-activated protein kinase 11 (Homo sapiens) (UniProt Q15759). The experiment in a line: Inhibition of p38-beta2 (unknown origin) at 0.45 uM relative to control.
Experiment [24] concerns the target Receptor tyrosine-protein kinase erbB-4 (Homo sapiens) (UniProt Q15303). In words: Inhibition of HER4 (unknown origin) at 0.45 uM relative to control.

Regarding `Cc1[nH]nc(C2CC2)c1-c1ccc2c(-c3ccc(N4CCN(C)CC4)nc3)n[nH]c2c1`, the inhibition in [1] was -1.7%; in experiment [2], 1.3%; in [3], -3%; in experiment [4], -2.3%; in experiment [5] it was 3%; in [6] it was 68.3%. For the same molecule, the inhibition in experiment [7] is 0.3%; in experiment [8], -3.3%; in experiment [9], 1%; in experiment [10], 3%; in [11] it was 3.7%; in experiment [12] it was -2%. Further, the inhibition in [13] is 16.7%; in [14] it was -1.7%.

For `COC(=O)Nc1cc(-c2c(C3CC3)n[nH]c2C)cc2[nH]ncc12`, the inhibition was 5.3% in [15]; -4.3% in experiment [16]; 1.3% in experiment [17]; -0.3% in [18]; 0.7% in experiment [19]; 0.7% in experiment [20]. Moreover, the inhibition in [21] came to 0.7%; in experiment [22], 0%.

Take `Cc1n[nH]c(C)c1-c1ccc2c(NC(=O)c3ccc(N4CCN(C)CC4)cc3)n[nH]c2c1`: the inhibition in experiment [23] is -1.3%; in experiment [24], -7%.
